Experiments:
[1] = tested on: GST-tagged cRafRBD (amino acids 51–131); test: Effector binding (pull-down experiments); details: in the presence of GppNHp alone or in combination with SOS
Method: Pull-down experiments were performed in 20 mM HEPES pH 7.5, 50 mM NaCl and 2 mM MgCl2. […] Afterwards, 50 µL glutathione magnetic beads were added to each sample for 30 min. After washing the beads with 500 µL buffer, the beads were settled with a magnet and the supernatant was carefully removed. The beads were resuspended in 50 µL of 4xSDS-loading buffer and visualized via SDS-PAGE (Figure 3—figure supplement 3).

[2] = tested on: pcRafS338; test: Electroporation into HeLa cells, western blot quantification; assay type: cell-based, human; details: for pcRaf mean fold change: mean of cell lysates
Method in brief: (§1)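 HeLa cells electroporated (2×35 ms, 1000 V) with 0–300 µg recombinant full-length KRas WT or G13C constructs, washed, then recovered for 24 h at 37 °C. Lysates (10 µg protein) analysed by SDS-PAGE and fluorescent western blotting, with protein levels quantified from blot signal.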

[3] = tested on: pErkT202/Y204; test: as above; assay type: cell-based, human; details: for pErk mean fold change: mean of cell lysates
Method in brief: as §1

[4] = tested on: pAktS473; test: as above; assay type: cell-based, human; details: for pAkt mean fold change: mean of cell lysates
Method in brief: as §1

KRasG13C-edaGDP: KRasG13C covalently locked with edaGDP at Cys13
binding to RafRBD (pull-down) [1]: neither in the presence of GppNHp nor of additional SOS able to bind to the RafRBD | pcRaf fold change ([2]; 50 µg, Cell lysate 1): 0.75 | pcRaf fold change ([2]; 50 µg, Cell lysate 2): 1.33 | pcRaf fold change ([2]; 50 µg, Cell lysate 3): 0.84 | pcRaf mean fold change ([2]; 50 µg): 0.97 | pcRaf fold change ([2]; 100 µg, Cell lysate 1): 0.89 | pcRaf fold change ([2]; 100 µg, Cell lysate 2): 0.78 | pcRaf fold change ([2]; 100 µg, Cell lysate 3): 1.40 | pcRaf mean fold change ([2]; 100 µg): 1.02 | pcRaf fold change ([2]; 200 µg, Cell lysate 1): 0.74 | pcRaf fold change ([2]; 200 µg, Cell lysate 2): 0.88 | pcRaf fold change ([2]; 200 µg, Cell lysate 3): 1.21 | pcRaf mean fold change ([2]; 200 µg): 0.94 | pcRaf fold change ([2]; 300 µg, Cell lysate 1): 0.57 | pcRaf fold change ([2]; 300 µg, Cell lysate 2): 0.97 | pcRaf fold change ([2]; 300 µg, Cell lysate 3): 1.13 | pcRaf mean fold change ([2]; 300 µg): 0.89 | pErk fold change ([3]; 50 µg, Cell lysate 1): 0.82 | pErk fold change ([3]; 50 µg, Cell lysate 2): 0.70 | pErk fold change ([3]; 50 µg, Cell lysate 3): 0.80 | pErk mean fold change ([3]; 50 µg): 0.77 | pErk fold change ([3]; 100 µg, Cell lysate 1): 1.10 | pErk fold change ([3]; 100 µg, Cell lysate 2): 0.77 | pErk fold change ([3]; 100 µg, Cell lysate 3): 0.86 | pErk mean fold change ([3]; 100 µg): 0.91 | pErk fold change ([3]; 200 µg, Cell lysate 1): 2.08 | pErk fold change ([3]; 200 µg, Cell lysate 2): 0.84 | pErk fold change ([3]; 200 µg, Cell lysate 3): 1.10 | pErk mean fold change ([3]; 200 µg): 1.34 | pErk fold change ([3]; 300 µg, Cell lysate 1): 2.38 | pErk fold change ([3]; 300 µg, Cell lysate 2): 0.86 | pErk fold change ([3]; 300 µg, Cell lysate 3): 1.58 | pErk mean fold change ([3]; 300 µg): 1.61 | pAkt fold change ([4]; 50 µg, Cell lysate 1): 0.89 | pAkt fold change ([4]; 50 µg, Cell lysate 2): 1.23 | pAkt mean fold change ([4]; 50 µg): 0.54 | pAkt fold change ([4]; 100 µg, Cell lysate 1): 0.28 | pAkt fold change ([4]; 100 µg, Cell lysate 2): 0.69 | pAkt fold change ([4]; 100 µg, Cell lysate 3): 1.01 | pAkt mean fold change ([4]; 100 µg): 0.66 | pAkt fold change ([4]; 200 µg, Cell lysate 1): 0.45 | pAkt fold change ([4]; 200 µg, Cell lysate 2): 0.95 | pAkt fold change ([4]; 200 µg, Cell lysate 3): 0.56 | pAkt mean fold change ([4]; 200 µg): 0.65 | pAkt fold change ([4]; 300 µg, Cell lysate 1): 0.63 | pAkt fold change ([4]; 300 µg, Cell lysate 2): 0.97 | pAkt fold change ([4]; 300 µg, Cell lysate 3): 1.17 | pAkt mean fold change ([4]; 300 µg): 0.92

Reference: paper PMC10042540, “Targeting oncogenic KRasG13C with nucleotide-based covalent inhibitors” (eLife, 2023)
